Columns and labels:
myocardial fibrosis = conditions: animal models; cited from earlier work
pressor response to AII = assay: Assay C: In vivo intragastric pressor assay response for AII antagonists; design: species or system Sprague-Dawley rats; conditions: in vivo pressor response, 3 mg/kg intragastrically
rabbit aortic rings = assay: Assay B: In vitro vascular smooth muscle response for AII (antagonist activity, pA2); type: cell-based; conditions: Oryctolagus cuniculus, two values in a cell = two determinations
Outline: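 Endothelium-denuded thoracic aortic rings from male New Zealand white rabbits, in oxygenated Krebs at 37° C. under ~1 g tension, gave isometric AII contraction curves (3×10^−10 to 1×10^−5 M).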

[1] = target: angiotensin II AT1 receptor; assay: Assay A: Angiotensin II binding activity, rat uterine membrane preparation, 125I-AII displacement

IC50 [1] [nM]	Structure (SMILES)	prevention of myocardial fibrosis (myocardial fibrosis)	inhibition in vivo at 3 mg/kg (pressor response to AII; Rattus norvegicus, po) [%]	Assay C Duration (pressor response to AII) [min]	Kb (rabbit aortic rings) [nM]
–	CC(=O)S[C@@H]1CC2=CC(=O)CC[C@]2(C)[C@H]2CC[C@@]3(C)[C@@H](CC[C@@]34CCC(=O)O4)[C@H]12 [spironolactone, 17-hydroxy-7α-mercapto-3-oxo-17α-pregn-4-ene-21-carboxylic acid γ-lactone acetate]	prevents myocardial fibrosis	–	–	–
10	CCCCn1cc(CC(C)C)n(Cc2ccc(-c3ccccc3-c3nnn[nH]3)nc2)c1=O [Compound 199]	–	60	>180	1.62
